Data reported in patent US4720495A, “Benzo[ij]quinolizine-2-carboxylic acids useful for treating bacterial infection” (priority 1985, dated 1988).
≈ marks a conversion by molar mass, not a printed value.

Key:
[1] = tested on: Bacillus subtilis ATCC 6633; test: minimal inhibitory concentration, in vitro antibacterial activity; format: cell-based; details: ATCC6633, 37° C., 20 hours
Method: (§1) The in vitro antibacterial activities of typical examples of the present compounds [I] were evaluated in terms of the minimal inhibitory concentration defined as the lowest concentration of the compound preventing the bacterial growth. The Gram-positive bacteria used as test microorganisms included Bacillus subtilis, Staphylococcus aureus and Streptococcus faecalis, and the Gram-negative bacteria used as test microorganisms included Escherichia coli, Enterobacter cloacae, Klebsiella pneumoniae, Proteus vulgaris, Pseudomonas aeruginosa, Serratia marcescens and Salmonella enteritidis. The minimal inhibitory concentration (cultured at 37° C. for 20 hours) was determined according to the standard method prescribed by the Japan Society of Chemotherapy (CHEMOTHERAPY, Vol. 29, No. 1, p. 76, 1981). The following compounds were used as typical examples of the present compounds [I]. At the end of the chemical name of each compound, its tentative designation is given in Parentheses.
(§2) For purposes of comparison, the in vitro antibacterial activities of ofloxacin, OPC-7241 and compound α were evaluated according to the same method as described above and the test results thus obtained are also shown in Table 1.

[2] = tested on: Enterobacter cloacae 963; test: as above; format: cell-based; details: 37° C., 20 hours
Method: as §1, §2

[3] = tested on: Escherichia coli CI-304; test: as above; format: cell-based; details: CI304, 37° C., 20 hours
Method: as §1, §2

[4] = tested on: Escherichia coli NIHJ JC-2; test: as above; format: cell-based; details: NIHJJC2, 37° C., 20 hours
Method: as §1, §2

[5] = tested on: Klebsiella pneumoniae PCI 602; test: as above; format: cell-based; details: PCI602, 37° C., 20 hours
Method: as §1, §2

[6] = tested on: Proteus vulgaris ATCC 13315; test: as above; format: cell-based; details: ATCC13315, 37° C., 20 hours
Method: as §1, §2

[7] = tested on: Pseudomonas aeruginosa NCTC 10490; test: as above; format: cell-based; details: NCTC10490, 37° C., 20 hours
Method: as §1, §2

[8] = tested on: Salmonella enteritidis G14; test: as above; format: cell-based; details: Salmonella enterica, 37° C., 20 hours
Method: as §1, §2

[9] = tested on: Serratia marcescens IAM 1184; test: as above; format: cell-based; details: IAM1184, 37° C., 20 hours
Method: as §1, §2

[10] = tested on: Staphylococcus aureus FDA 209P JC-1; test: as above; format: cell-based; details: FDA209P, 37° C., 20 hours
Method: as §1, §2

[11] = tested on: Streptococcus faecalis AHU 1085; test: as above; format: cell-based; details: Enterococcus faecalis, AHU1085, 37° C., 20 hours
Method: as §1, §2

[12] = enteral absorbability, serum concentration after oral administration to mice; format: in vivo; details: mouse, 50 mg/kg orally, fasted male ICR mice
Method: Using male ICR mice fasted overnight (weighing 20±1 g), the enteral absorbability of some typical examples of the present compounds [I] was tested. This test was carried out by administering 50 mg/kg of each test compound orally to mice and determining its serum concentration 30 minutes, 1 hour, 2 hours and 4 hours after administration. Five mice were used for each test point. At each test point, whole blood was collected from the mice by cardiac puncture and used to prepare serum samples. Concentrations of the test compounds in serum samples were determined by the paper disc method using Escherichia coli CI-304 as the test microorganism.
For purposes of comparison, the enteral absorbability of ofloxacin and OPC-7241 was tested in the same manner as described above and the results thus obtained are also shown in Table 2.

Row | Structure (SMILES) | MIC [1] | MIC [2] | MIC [3] | MIC [4] | MIC [5] | MIC [7] | MIC [8] | MIC [10] | MIC [11] | concentration at 0.5 h ([12]; 30 min.) | concentration at 1 h ([12]; 1 hr.) | concentration at 2 h ([12]; 2 hr.) | concentration at 4 h ([12]; 4 hr.) | MIC [6] | MIC [9]
1 | CC1CC(=O)c2c(N3CCNCC3)c(F)cc3c(=O)c(C(=O)O)cn1c23 (centres unmarked) [Compound 1, 9-Fluoro-5-methyl-8-(1-piperazinyl)-6,7-dihydro-1,7-dioxo-1H,5H-benzo[ij]quinolizine-2-carboxylic acid] | 0.39 µg/mL (≈ 1.09 µM) | 0.78 µg/mL (≈ 2.17 µM) | 0.1 µg/mL (≈ 0.278 µM) | 0.39 µg/mL (≈ 1.09 µM) | 0.1 µg/mL (≈ 0.278 µM) | 1.56 µg/mL (≈ 4.34 µM) | 0.39 µg/mL (≈ 1.09 µM) | 0.2 µg/mL (≈ 0.557 µM) | 1.56 µg/mL (≈ 4.34 µM) |  |  |  |  | 0.2 µg/mL (≈ 0.557 µM) | 3.13 µg/mL (≈ 8.71 µM)
2 | CC1CC(=O)c2c(N3CCNCC3)c(Cl)cc3c(=O)c(C(=O)O)cn1c23 (centres unmarked) [Compound 2, 9-Chloro-5-methyl-8-(1-piperazinyl)-6,7-dihydro-1,7-dioxo-1H,5H-benzo[ij]quinolizine-2-carboxylic acid] | 0.39 µg/mL (≈ 1.04 µM) | 0.78 µg/mL (≈ 2.08 µM) | 0.2 µg/mL (≈ 0.532 µM) | 0.39 µg/mL (≈ 1.04 µM) | 0.1 µg/mL (≈ 0.266 µM) | 0.78 µg/mL (≈ 2.08 µM) |  | 0.39 µg/mL (≈ 1.04 µM) |  |  |  |  |  | 0.1 µg/mL (≈ 0.266 µM) | 
3 | CC1CC(=O)c2c(N3CCNC(C)(C)C3)c(F)cc3c(=O)c(C(=O)O)cn1c23 (centres unmarked) [Compound 15, 9-Fluoro-5-methyl-8-(3,3-dimethyl-1-piperazinyl) -6,7-dihydro-1,7-dioxo-1H, 5H-benzo[ij]quinolizine-2-carboxylic acid] | 0.39 µg/mL (≈ 1.01 µM) | 0.39 µg/mL (≈ 1.01 µM) | 0.1 µg/mL (≈ 0.258 µM) | 0.39 µg/mL (≈ 1.01 µM) | 0.1 µg/mL (≈ 0.258 µM) | 3.13 µg/mL (≈ 8.08 µM) | 0.78 µg/mL (≈ 2.01 µM) | 0.39 µg/mL (≈ 1.01 µM) | 3.13 µg/mL (≈ 8.08 µM) | 15000 ng/mL | 11700 ng/mL | 6700 ng/mL | 4300 ng/mL |  | 
4 | CC1CN(c2c(Cl)cc3c(=O)c(C(=O)O)cn4c3c2C(=O)CC4C)CC(C)N1C (centres unmarked) [Compound 18, 9-Chloro-5-methyl-8-(3,4,5-trimethyl-1-piperazinyl) -6,7-dihydro-1,7-dioxo-1H, 5H-benzo[ij]quinolizine-2-carboxylic acid] |  | 0.78 µg/mL (≈ 1.87 µM) | 0.2 µg/mL (≈ 0.479 µM) | 0.78 µg/mL (≈ 1.87 µM) | 0.1 µg/mL (≈ 0.239 µM) |  |  |  |  |  |  |  |  |  | 

Now from value to molecule, other results behind:

Row | MIC [1] | MIC [2] | MIC [3] | MIC [4] | MIC [5] | MIC [7] | MIC [8] | MIC [10] | MIC [11] | concentration at 0.5 h ([12]; 30 min.) | concentration at 1 h ([12]; 1 hr.) | concentration at 2 h ([12]; 2 hr.) | concentration at 4 h ([12]; 4 hr.) | Structure (SMILES) | MIC [6] | MIC [9]
5 | 0.39 µg/mL (≈ 1.01 µM) | 0.78 µg/mL (≈ 2.01 µM) | 0.39 µg/mL (≈ 1.01 µM) | 0.78 µg/mL (≈ 2.01 µM) | 0.2 µg/mL (≈ 0.516 µM) |  |  |  |  |  |  |  |  | CCC1CC(=O)c2c(N3CCN(C)CC3)c(F)cc3c(=O)c(C(=O)O)cn1c23 (centres unmarked) [Compound 6, 9-Fluoro-5-ethyl-8-(4-methyl-1-piperazinyl) -6,7-dihydro-1,7-dioxo-1H, 5H-benzo[ij]quinolizine-2-carboxylic acid] |  | 
6 | 0.1 µg/mL (≈ 0.257 µM) | 0.2 µg/mL (≈ 0.513 µM) | 0.1 µg/mL (≈ 0.257 µM) | 0.1 µg/mL (≈ 0.257 µM) | 0.1 µg/mL (≈ 0.257 µM) | 0.78 µg/mL (≈ 2 µM) | 0.78 µg/mL (≈ 2 µM) | 0.39 µg/mL (≈ 1 µM) | 1.56 µg/mL (≈ 4 µM) |  |  |  |  | CC1CC(=O)c2c(N3CCN(C)CC3)c(Cl)cc3c(=O)c(C(=O)O)cn1c23 (centres unmarked) [Compound 7, 9-Chloro-5-methyl-8-(4-methyl-1-piperazinyl)-6,7-dihydro-1,7-dioxo-1H, 5H-benzo[ij]quinolizine-2-carboxylic acid] | 0.1 µg/mL (≈ 0.257 µM) | 3.13 µg/mL (≈ 8.03 µM)
7 | 0.39 µg/mL (≈ 0.972 µM) | 0.78 µg/mL (≈ 1.94 µM) | 0.2 µg/mL (≈ 0.498 µM) | 0.39 µg/mL (≈ 0.972 µM) | 0.1 µg/mL (≈ 0.249 µM) | 1.56 µg/mL (≈ 3.89 µM) |  | 0.78 µg/mL (≈ 1.94 µM) | 3.13 µg/mL (≈ 7.8 µM) |  |  |  |  | CCCN1CCN(c2c(F)cc3c(=O)c(C(=O)O)cn4c3c2C(=O)CC4C)CC1 (centres unmarked) [Compound 8, 9-Fluoro-5-methyl-8-(4-n-propyl-1-piperazinyl)-6,7-dihydro-1,7-dioxo-1H, 5H-benzo[ij]quinolizine-2-carboxylic acid] |  | 
8 |  |  | 0.39 µg/mL (≈ 0.967 µM) |  | 0.1 µg/mL (≈ 0.248 µM) |  |  |  |  |  |  |  |  | CC1CC(=O)c2c(N3CCN(CCO)CC3)c(F)cc3c(=O)c(C(=O)O)cn1c23 (centres unmarked) [Compound 12, 9-Fluoro-5-methyl-8-[4-(2-hydroxyethyl) -1-piperazinyl]-6,7-dihydro-1,7-dioxo-1H, 5H-benzo[ij]quinolizine-2-carboxylic acid] |  | 
